In patent US8058437B2, “(Pyrroloquinoxalinyl) pyrazinecarbohydrazide-oxalic acid co-crystal for treatment of cancer and other diseases” (Novelix Pharmaceuticals, Inc., priority 2008, dated 2011):
Values joined by “and” are separate entries in the source; they are usually repeats but may differ in a detail not shown here. Equal values may be shown once. Read-outs that look alike come from different tables or passages of the source.

Columns and labels:
[1] = Pharmacokinetic experiments in rats (IV, oral suspension, oral solution); assay type: in vivo; details: rat; for concentration at 0.5 h / concentration at 1 h / concentration at 4 h / concentration at 8 h: oral; for bioavailability: adjusted for dose
Method: The oral suspension formulation was prepared by suspending the test article in 5% PEG-200/95% of a 0.5% solution of methylcellulose. The concentration of the test article was such that a dosing volume of 10 mL/kg delivered the intended dose level. The oral solution formulations of NVX-144 and NVX-412 were prepared by dissolving the test article in 10% by volume dimethyl acetamide, followed by 60% by volume PEG-400, and then adding slowly a solution of 30% Captisol® in 50 mM lactic acid to provide the remaining 30% of volume. The concentration of the test article was such that a dosing volume of 10 mL/kg delivered the intended dose level. The IV formulation of NVX-412 was prepared by dissolving the test article in 10% by volume dimethyl acetamide, followed by 10% by volume PEG-400, and then adding slowly a solution of 10% Captisol® in 50 mM lactic acid to provide the remaining 80% of volume. The concentration of the test articles was such that a dosing volume of 2.5 mL/kg delivered the intended dose level. The doses administered were based on the body weight of each animal taken shortly before dosing. The formulations were used immediately after preparation.
A total of 15 rats were assigned to the study. Five groups of three male rats each comprised the study. Each group was treated once by oral gavage or intravenous injection via the tail vein as specified in Table 3 below.
The animals were fasted overnight prior to dosing and the feed returned approximately 2 hours post-dosing. The dose for each animal was based on the most recent body weight. Oral doses were administered by gavage. Animals received 10 mL/kg per single oral dose. Intravenous doses were administered by tail vein injection. The dose for each animal was based on the most recent body weight. Animals were dosed at 2.5 mL/kg per single intravenous dose.
Blood was collected from the animals in Groups 1 through 5 for pharmacokinetic analysis. Approximately 0.3 mL of blood was collected in potassium EDTA tubes via the orbital plexus at four time points (30 minutes, 1 hour, 4 hours, and 8 hours post-dose) from each rat treated by the oral route, and the blood samples were processed to prepare plasma. Blood was collected at four time points (5 minutes, 30 minutes, 1 hour, and 2 hours post-dose) from each rat treated by the intravenous route, and the blood samples were processed to prepare plasma. Animals were terminated (without necropsy) following their final sample collection.
The whole blood samples were centrifuged (˜1500×g) for a minimum of 10 minutes in a refrigerated centrifuge (set at ˜5° C.). Plasma was prepared and transferred within 30 minutes of blood collection/centrifugation to appropriately labeled tubes. The tubes were then frozen and stored in the dark at ≦−70° C. until analysis. The plasma samples were analyzed by LC-MS/MS to determine the plasma concentrations of NVX-144 and NVX-412. Pharmacokinetic analysis of the plasma concentration data was conducted using non-compartmental analysis with WinNonlin Version 4.1.

[2] = Salt formation experiments / physical characteristics of solid forms; assay type: physicochemical; details: free base prepared from NVX-144.HCl; salt formation with acids
Method: Thus, a series of experiments was conducted to assess the preparation of NVX-144 salts of acids other than hydrochloric acid as possible novel compounds better suited to pharmaceutical preparations. […] As expected, NVX-144 base readily formed salts with strong organic acids.
Although oxalic acid co-crystals are rare, Trask et al. have reported a co-crystal of caffeine with oxalic acid (see Trask et al., “Pharmaceutical Cocrystallization: Engineering a Remedy for Caffeine Hydration,” Crystal Growth & Design, 5, 1013-21 (2005)).
Thus NVX-144 would not be expected to form a salt with oxalic acid, a relatively strong dicarboxylic acid.

[3] = male, plasma, po, 20 mg/kg, Group 2, PO-Suspension 20 mg/kg, Mean N=3
[4] = male, plasma, po, 20 mg/kg, Group 2, PO-Suspension 20 mg/kg, individual animals
[5] = male, plasma, po, 20 mg/kg, Group 4, PO-Solution 20 mg/kg, Mean N=3
[6] = male, plasma, po, 20 mg/kg, Group 4, PO-Solution 20 mg/kg, individual animals
[7] = Group 2, PO-Suspension 20 mg/kg, Mean N=3, listed as NVX-144 Free Base
[8] = Group 2, PO-Suspension 20 mg/kg, individual animals, listed as NVX-144 Free Base
[9] = Group 4, PO-Solution 20 mg/kg, Mean N=3, listed as NVX-144 Free base
[10] = Group 4, PO-Solution 20 mg/kg, individual animals, listed as NVX-144 Free base

- concentration at 0.5 h ([1]; male, plasma, 20 mg/kg, Group 2, PO-Suspension 20 mg/kg, 0.5 hr, Mean): 479 ng/mL
- concentration at 0.5 h ([1]; male, plasma, 20 mg/kg, Group 2, PO-Suspension 20 mg/kg, 0.5 hr, individual animals): 436 ng/mL
- concentration at 1 h ([1]; male, plasma, 20 mg/kg, Group 2, PO-Suspension 20 mg/kg, 1 hr, Mean): 427 ng/mL
- concentration at 4 h ([1]; male, plasma, 20 mg/kg, Group 2, PO-Suspension 20 mg/kg, 4 hr, Mean): 227 ng/mL
- concentration at 4 h ([1]; male, plasma, 20 mg/kg, Group 2, PO-Suspension 20 mg/kg, 4 hr, individual animals): 270 ng/mL
- concentration at 8 h ([1]; male, plasma, 20 mg/kg, Group 2, PO-Suspension 20 mg/kg, 8 hr, Mean): 10.9 ng/mL
- concentration at 0.5 h ([1]; male, plasma, 20 mg/kg, Group 4, PO-Solution 20 mg/kg, 0.5 hr, Mean): 709 ng/mL
- concentration at 0.5 h ([1]; male, plasma, 20 mg/kg, Group 4, PO-Solution 20 mg/kg, 0.5 hr, individual animals): 691 ng/mL
- concentration at 1 h ([1]; male, plasma, 20 mg/kg, Group 4, PO-Solution 20 mg/kg, 1 hr, Mean): 643 ng/mL
- concentration at 1 h ([1]; male, plasma, 20 mg/kg, Group 4, PO-Solution 20 mg/kg, 1 hr, individual animals): 570 ng/mL
- concentration at 4 h ([1]; male, plasma, 20 mg/kg, Group 4, PO-Solution 20 mg/kg, 4 hr, Mean): 225 ng/mL
- concentration at 4 h ([1]; male, plasma, 20 mg/kg, Group 4, PO-Solution 20 mg/kg, 4 hr, individual animals): 289 ng/mL
- concentration at 8 h ([1]; male, plasma, 20 mg/kg, Group 4, PO-Solution 20 mg/kg, 8 hr, Mean): 31.5 ng/mL
- AUC [1, 3]: 1800 ng·h/mL
- AUC(0-inf) [1, 3]: 1830 ng·h/mL
- Cmax ([1]; male, plasma, po, 20 mg/kg, Group 2, PO-Suspension 20 mg/kg, Mean N=3, read-out: Cmax): 487 ng/mL
- half-life ([1]; male, plasma, po, 20 mg/kg, Group 2, PO-Suspension 20 mg/kg, Mean N=3, read-out: T ½ (converted)): 1.4 h
- Tmax ([1]; male, plasma, po, 20 mg/kg, Group 2, PO-Suspension 20 mg/kg, Mean N=3, read-out: Tmax): 0.67 h
- bioavailability ([1]; male, plasma, po, 20 mg/kg, Group 2, PO-Suspension 20 mg/kg, Mean N=3, versus mean IV AUCINF, read-out: Bioavailability): 34.7%
- AUC [1, 4]: 1690 ng·h/mL
- AUC(0-inf) [1, 4]: 1720 ng·h/mL
- Cmax ([1]; male, plasma, po, 20 mg/kg, Group 2, PO-Suspension 20 mg/kg, individual animals, read-out: Cmax): 436 ng/mL
- half-life ([1]; male, plasma, po, 20 mg/kg, Group 2, PO-Suspension 20 mg/kg, individual animals, read-out: T ½ (converted)): 1.66 h
- Tmax ([1]; male, plasma, po, 20 mg/kg, Group 2, PO-Suspension 20 mg/kg, individual animals, read-out: Tmax): 0.5 to 1 h
- bioavailability ([1]; male, plasma, po, 20 mg/kg, Group 2, PO-Suspension 20 mg/kg, individual animals, versus mean IV AUCINF, read-out: Bioavailability): 32.8%
- AUC [1, 5]: 2330 ng·h/mL
- AUC(0-inf) [1, 5]: 2520 ng·h/mL
- Cmax ([1]; male, plasma, po, 20 mg/kg, Group 4, PO-Solution 20 mg/kg, Mean N=3, read-out: Cmax): 714 ng/mL
- half-life ([1]; male, plasma, po, 20 mg/kg, Group 4, PO-Solution 20 mg/kg, Mean N=3, read-out: T ½ (converted)): 1.6 h
- Tmax ([1]; male, plasma, po, 20 mg/kg, Group 4, PO-Solution 20 mg/kg, Mean N=3, read-out: Tmax): 0.67 h
- bioavailability ([1]; male, plasma, po, 20 mg/kg, Group 4, PO-Solution 20 mg/kg, Mean N=3, versus mean IV AUCINF, read-out: Bioavailability): 46.1%
- AUC [1, 6]: 2500 ng·h/mL
- AUC(0-inf) [1, 6]: 2760 ng·h/mL
- Cmax ([1]; male, plasma, po, 20 mg/kg, Group 4, PO-Solution 20 mg/kg, individual animals, read-out: Cmax): 691 ng/mL
- Tmax ([1]; male, plasma, po, 20 mg/kg, Group 4, PO-Solution 20 mg/kg, individual animals, read-out: Tmax): 0.5 to 1 h
- bioavailability ([1]; male, plasma, po, 20 mg/kg, Group 4, PO-Solution 20 mg/kg, individual animals, versus mean IV AUCINF, read-out: Bioavailability): 52.6%
- plasma concentration ([1]; Group 2, PO-Suspension 20 mg/kg, 0.5 hr, individual animals, listed as NVX-144 Free Base): 428.07 ng/mL and 571.69 ng/mL
- plasma concentration ([1]; Group 2, PO-Suspension 20 mg/kg, 4 hr, individual animals, listed as NVX-144 Free Base): 234.64 ng/mL and 175.82 ng/mL
- AUC % Extrap ([1]; Group 2, PO-Suspension 20 mg/kg, Mean N=3): 1.32%
- AUCINF [1, 7]: 1826.45 ng·h/mL
- Cmax [1, 7]: 487.28 ng/mL
- T ½ [1, 7]: 1.39 h
- AUC % Extrap [1, 8]: 2.08% and 1.48% and 0.4%
- AUCINF [1, 8]: 1789.00 ng·h/mL and 1965.88 ng·h/mL
- AUCall [1, 8]: 1762.55 ng·h/mL and 1958.03 ng·h/mL
- Cmax [1, 8]: 428.07 ng/mL and 597.75 ng/mL
- T ½ [1, 8]: 1.49 h and 1.01 h
- Tmax [1, 8]: 0.5 h and 1.0 h
- bioavailability ([1]; Group 2, PO-Suspension 20 mg/kg, individual animals, versus mean IV AUCINF, listed as NVX-144 Free Base): 34.0% and 37.4%
- plasma concentration ([1]; Group 4, PO-Solution 20 mg/kg, 0.5 hr, individual animals, listed as NVX-144 Free Base): 610.62 ng/mL and 824.32 ng/mL
- plasma concentration ([1]; Group 4, PO-Solution 20 mg/kg, 1 hr, individual animals, listed as NVX-144 Free Base): 626.73 ng/mL and 731.54 ng/mL
- plasma concentration ([1]; Group 4, PO-Solution 20 mg/kg, 4 hr, individual animals, listed as NVX-144 Free Base): 163.62 ng/mL and 221.82 ng/mL
- AUC % Extrap ([1]; Group 4, PO-Solution 20 mg/kg, Mean N=3): 3.61%
- AUCINF [1, 9]: 2426.28 ng·h/mL
- Cmax [1, 9]: 713.93 ng/mL
- T ½ [1, 9]: 1.56 h
- AUC % Extrap [1, 10]: 9.41% and 0.41% and 1.00%
- AUCINF [1, 10]: 1994.04 ng·h/mL and 2521.47 ng·h/mL
- AUCall [1, 10]: 1985.89 ng·h/mL and 2496.24 ng·h/mL
- Cmax [1, 10]: 626.73 ng/mL and 824.32 ng/mL
- T ½ [1, 10]: 2.39 h and 1.01 h and 1.27 h
- Tmax [1, 10]: 0.5 h and 1.0 h
- bioavailability ([1]; Group 4, PO-Solution 20 mg/kg, individual animals, versus mean IV AUCINF, listed as NVX-144 Free base): 37.9% and 48.0%
- oral absorption ([1]; administered as a solution or suspension): moderate
- basicity [2]: very weak base
SMILES: O=C(NNc1nc2cc(F)ccc2n2cccc12)c1cnccn1 [NVX-144, N′-(7-fluoropyrrolo[1,2a]quinoxalin-4-yl)pyrazine-2-carbohydrazide, reference compound]
- plasma concentration ([1]; Group 2, PO-Suspension 20 mg/kg, 1 hr, individual animals, listed as NVX-144 Free Base): 282.56 ng/mL and 401.49 ng/mL and 597.75 ng/mL
- plasma concentration ([1]; Group 2, PO-Suspension 20 mg/kg, 8 hr, individual animals, listed as NVX-144 Free Base): 14.92 ng/mL and 12.33 ng/mL and 5.37 ng/mL
- plasma concentration ([1]; Group 4, PO-Solution 20 mg/kg, 8 hr, individual animals, listed as NVX-144 Free Base): 75.29 ng/mL and 5.57 ng/mL and 13.76 ng/mL
